According to patent US20090054412A1, “Treatment of Sleep Disorders” (priority 2007, published 2009):

Key:
[1] = Example 3: randomized double-blind placebo-controlled crossover study in primary insomnia (PSG, patient reports, DSST, safety); assay type: in vivo, human
Description: A randomized, multicenter, double-blind, placebo-controlled crossover study was conducted to assess the efficacy of the 1.5 mg and 2.5 mg doses of the compound of formula (II) in the treatment of primary insomnia in adult patients. Specifically, one of the objectives of the study was to assess the efficacy of 1.5 mg and 2.5 mg doses on polysomnogram (PSG) and patient-reported measures of sleep. Also, the study was aimed at assessing the safety of 1.5 mg and 2.5 mg doses.
The study in this Example was performed for two consecutive nights with a 5-12 day washout between each period. The dosing was conducted 30 minutes before lights were turned out for the night via oral administration of a hard gelatine capsule containing the compound of formula (II) in powder form. PSG was taken for 8 hours from “lights out” on nights 1 and 2 of each treatment period. Centralized scoring of PSG was used. Testing for residual effects using the Digit Symbol Substitution Test (DSST) was performed at least 30 minutes after wake time (9 hours post dose).
[…] These subjects' typical bed time was between 9 pm and 1 am with at least 7 hours in bed. These subjects reported sleep latency of at least 45 minutes and total sleep time (TST) of not more than 6.5 hours in a sleep diary for at least 3 of 7 nights.
Mean wake time after sleep onset (WASO) of the patients was at least 40 minutes and mean TST was 240-420 minutes.

[2] = biological target: T1, rat GABAA receptors α3β2γ2 (Rattus norvegicus, UniProt P18508+P20236); experiment: Stimulation of GABA (EC3-5)-elicited currents in Xenopus oocytes, two-electrode voltage clamp, α3β2γ2; assay type: cell-based
T1 construct: expressed in transfected cells; host or cells: Xenopus laevis oocytes, cRNA microinjected
T1 sequence (P20236 29-493): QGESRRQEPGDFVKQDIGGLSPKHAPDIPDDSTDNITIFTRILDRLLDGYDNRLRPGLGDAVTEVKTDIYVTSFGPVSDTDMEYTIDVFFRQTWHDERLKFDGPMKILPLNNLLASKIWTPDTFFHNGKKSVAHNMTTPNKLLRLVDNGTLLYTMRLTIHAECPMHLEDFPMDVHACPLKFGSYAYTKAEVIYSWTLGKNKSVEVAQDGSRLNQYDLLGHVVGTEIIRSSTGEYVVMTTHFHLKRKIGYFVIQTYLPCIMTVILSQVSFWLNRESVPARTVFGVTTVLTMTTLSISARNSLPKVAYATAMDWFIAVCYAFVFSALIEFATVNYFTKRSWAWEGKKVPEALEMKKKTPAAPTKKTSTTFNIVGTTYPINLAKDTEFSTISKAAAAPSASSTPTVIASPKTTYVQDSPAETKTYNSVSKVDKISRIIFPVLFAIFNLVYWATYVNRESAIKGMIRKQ
T1 sequence (P63138 25-474 partner limits assumed): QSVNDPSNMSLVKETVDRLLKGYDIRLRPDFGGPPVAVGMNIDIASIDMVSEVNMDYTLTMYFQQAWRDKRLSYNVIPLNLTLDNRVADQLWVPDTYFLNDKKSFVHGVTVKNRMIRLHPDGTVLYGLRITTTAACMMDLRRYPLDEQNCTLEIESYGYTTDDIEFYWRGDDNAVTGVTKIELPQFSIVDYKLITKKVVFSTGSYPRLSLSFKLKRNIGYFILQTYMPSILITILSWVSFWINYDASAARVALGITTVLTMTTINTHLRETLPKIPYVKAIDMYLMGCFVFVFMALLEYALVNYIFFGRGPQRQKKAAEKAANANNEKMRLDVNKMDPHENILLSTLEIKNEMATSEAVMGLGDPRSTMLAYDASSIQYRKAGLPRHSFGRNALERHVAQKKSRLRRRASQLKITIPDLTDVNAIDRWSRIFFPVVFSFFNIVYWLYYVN
T1 sequence (P18508 39-466): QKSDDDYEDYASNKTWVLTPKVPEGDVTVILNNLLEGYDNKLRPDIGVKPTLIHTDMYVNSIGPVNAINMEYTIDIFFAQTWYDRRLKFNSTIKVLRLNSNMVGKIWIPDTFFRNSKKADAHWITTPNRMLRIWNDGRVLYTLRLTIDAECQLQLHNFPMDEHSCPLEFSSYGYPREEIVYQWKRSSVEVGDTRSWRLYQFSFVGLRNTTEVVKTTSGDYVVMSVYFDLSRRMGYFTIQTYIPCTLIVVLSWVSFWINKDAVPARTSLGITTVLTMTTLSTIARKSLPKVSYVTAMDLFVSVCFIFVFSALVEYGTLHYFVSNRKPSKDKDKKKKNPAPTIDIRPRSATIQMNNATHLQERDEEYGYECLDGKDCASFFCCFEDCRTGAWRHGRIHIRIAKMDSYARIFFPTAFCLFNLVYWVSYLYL
Text: (§1) 7-Chloro-3-(5-dimethylaminomethyl-[1,2,4]oxadiazol-3-yl)-5methyl-4,5-dihydro-imidazol[1,5,-a][1,4]benzodiazepine-6-one was used to test the effects of the compound of formula (II): […]
(§2) Similar procedures were chosen as for the investigation of other GABAA receptor subunit specific substances (e.g., Baur et al., 2005; Mol. Pharmacol. 68, 787-792).
(§3) Lobes of the ovary containing the follicles were obtained by surgical procedures from female Xenopus laevis. Follicles were singled out using a platinum loop. Fifty nL of cRNA solution at a ratio of αx:β2:γ2 of 1:1:5 (3.3-10 nM αx (x=1,2,3,5); 3.3-10 nM β2; 16.7-50 nM γ2) (Boileau et al., 2002; Neuropharmacology 43, 695-700) were microinjected into Xenopus follicles. Several hours after microinjection the follicles were freed of follicular layers and adhering connective tissue by a collagenase/hypertonic shock procedure (Sigel, 1987; J. Physiol.(Land) 386, 73-90). Oocytes were kept at constant 18° C. until measurement (1-4 days) in a modified Barth solution (88 mM NaCl, 1 mM KCl, 2.4 mM NaHCO3, 10 mM Hepes-NaOH (pH 7.5), 0.82 mM MgSO4×7H2O, 0.34 mM Ca(NO3)2×4H2O, 0.41 mM CaCl2×2H2O, 100 U Penicillin/mL, 100 μg Streptomycin/mL, sterile filtered).
(§4) Currents were measured using a home-built amplifier in combination with a xy-recorder or were digitized using a MacLab/200 (AD Instruments) and stored on a computer. Xenopus oocytes were voltage clamped using the two-electrode voltage clamp technique (electrode resistance about 0.8 MΩ) at −80 mV. The medium contained 90 mM NaCl, 1 mM KCl, 1 mM MgCl2, 1 mM CaCl2, 10 mM Na-Hepes (pH 7.4) and 0.5% DMSO.
(§5) GABA was applied for 20-50 seconds without or in combination with other drugs and a washout period of 4 minutes was allowed to ensure full recovery from desensitization, which was experimentally determined. The perfusion solution (6 mL/min) was applied through a glass capillary with an inner diameter of 1.35 mm, the mouth of which was placed about 0.4 mm from the surface of the oocyte. The rate of solution change under our conditions has been estimated 70% within less than 0.5 s (Sigel et al., 1990; Neuron 5, 703-711). The entire perfusion system and the assay chamber were cleaned between drug applications by washing with DMSO.
(§6) Data is given as mean±SD, except in the figures where data is shown for clarity as mean±SEM. Current stimulation was calculated as follows: stimulation (%)=((I(GABA+modulator)−I(GABA))/I(GABA))×100%, where I is the current amplitude. Where indicated, the stimulation was standardized to the stimulation by 1 μM diazepam (100%). To obtain FIGS. 1-4, values for current stimulation obtained at a given concentration of modulator at a given subunit combination were averaged. The data points were fitted with the equation stimulation=efficacy/(1+(potency/concentration of modulator)). The values given in the Tables (Summary) are obtained by fitting individual curves and subsequently averaging efficacy and potency.
(§7) Concentration response curves were also performed with oocytes expressing α2β2γ2, α3β2γ2, or α5β2γ2, after establishing the optimal concentration range as indicated above. […] Averaged data of the individual curves summarizing the effects of the compound of formula (II) are shown below for unstandardized and standardized stimulation.
(§8) Concentration response curves were also performed with oocytes expressing α2β2γ2, α3β2γ2, or α5β2γ2.
(§9) Current stimulation by diazepam was determined in each batch of oocytes as follows. GABA (EC3-5) was applied until a stable response was obtained. Subsequently, GABA was applied in combination with 1 μM diazepam.

[3] = biological target: T2, rat GABAA receptors α2β2γ2 (Rattus norvegicus, UniProt P18508+P23576); experiment: Stimulation of GABA (EC3-5)-elicited currents in Xenopus oocytes, two-electrode voltage clamp, α2β2γ2; assay type: cell-based
T2 construct: expressed in transfected cells; host or cells: Xenopus laevis oocytes, cRNA microinjected
T2 sequence (P23576 29-451): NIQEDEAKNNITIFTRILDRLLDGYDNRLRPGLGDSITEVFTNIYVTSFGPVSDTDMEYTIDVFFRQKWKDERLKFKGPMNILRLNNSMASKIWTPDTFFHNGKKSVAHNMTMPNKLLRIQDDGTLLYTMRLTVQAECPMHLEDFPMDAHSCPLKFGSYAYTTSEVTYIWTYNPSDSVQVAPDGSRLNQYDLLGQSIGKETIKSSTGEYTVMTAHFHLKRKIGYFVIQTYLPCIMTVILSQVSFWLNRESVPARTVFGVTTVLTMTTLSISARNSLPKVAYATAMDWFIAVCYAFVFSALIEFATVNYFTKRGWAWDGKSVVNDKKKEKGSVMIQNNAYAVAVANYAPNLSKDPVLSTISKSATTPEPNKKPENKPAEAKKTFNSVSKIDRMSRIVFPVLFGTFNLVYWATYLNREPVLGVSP
T2 sequence (P63138 25-474 partner limits assumed): as the sequence (P63138 25-474 partner limits assumed) above
T2 sequence (P18508 39-466): as the sequence (P18508 39-466) above
Text: as §1, §2, §3, §4, §5, §6, §7, §8, §9

[4] = GABA EC3-5, mean±SD of individually fitted curves, read-out: Potency
[5] = standardized to stimulation by 1 μM diazepam (100%)
[6] = unstandardized current stimulation

CN(C)Cc1nc(-c2ncn3c2CN(C)C(=O)c2c(Cl)cccc2-3)no1 [compound of formula (II), 7-chloro-3-(5-dimethylaminomethyl-[1,2,4]oxadiazol-3-yl)-5-methyl-4,5-dihydro-imidazo[1,5-a][1,4]benzodiazepine-6-one]
increase of TST compared to placebo ([1]; 1.5 mg): 33.1 min
reduction of LPS compared to placebo ([1]; 1.5 mg): 17.0 min
reduction of WASO compared to placebo ([1]; 1.5 mg): 16.7 min
reduction of total wake time in hours 5-8 ([1]; 1.5 mg): 10.8 min
Number of Patients with Any Event ([1]; 1.5 mg (n = 71)): 13
Number of Patients with Headache ([1]; 1.5 mg (n = 71)): 3
Number of Patients with Somnolence ([1]; 1.5 mg (n = 71)): 2
Patients with Any Event, percent ([1]; 1.5 mg (n = 71)): 18.3%
Patients with Headache, percent ([1]; 1.5 mg (n = 71)): 4.2%
Patients with Somnolence, percent ([1]; 1.5 mg (n = 71)): 2.8%
safety and tolerability ([1]; 1.5 mg and 2.5 mg): safe and well-tolerated
WASO in the second half of the night (5-8 hours after lights out) ([1]; 1.5 mg and 2.5 mg, compared to placebo, p<0.0001): reduced WASO
patient-reported residual sedation effects ([1]; 1.5 mg or 2.5 mg compared with placebo): no patient-reported residual sedation effects
Adjusted mean LPS (min), p value ([1]; 1.5 mg vs. placebo): p < 0.0001
Adjusted mean TST (min), p value ([1]; 1.5 mg vs. placebo): p < 0.0001
Adjusted mean WASO (min), p value ([1]; 1.5 mg vs. placebo): p < 0.0001
Adjusted mean total wake time, 2nd half (min), p value ([1]; 1.5 mg vs. placebo): p = 0.0008
increase of TST compared to placebo ([1]; 2.5 mg): 45.0 min
reduction of LPS compared to placebo ([1]; 2.5 mg): 20.7 min
reduction of WASO compared to placebo ([1]; 2.5 mg): 25.7 min
reduction of total wake time in hours 5-8 ([1]; 2.5 mg): 16.2 min
Number of Patients with Any Event ([1]; 2.5 mg (n = 71)): 18
Number of Patients with Headache ([1]; 2.5 mg (n = 71)): 6
Number of Patients with Somnolence ([1]; 2.5 mg (n = 71)): 4
Patients with Any Event, percent ([1]; 2.5 mg (n = 71)): 25.4%
Patients with Headache, percent ([1]; 2.5 mg (n = 71)): 8.5%
Patients with Somnolence, percent ([1]; 2.5 mg (n = 71)): 5.6%
Adjusted mean LPS (min), p value ([1]; 2.5 mg vs. placebo): p < 0.0001
Adjusted mean TST (min), p value ([1]; 2.5 mg vs. placebo): p < 0.0001
Adjusted mean WASO (min), p value ([1]; 2.5 mg vs. placebo): p < 0.0001
Adjusted mean total wake time, 2nd half (min), p value ([1]; 2.5 mg vs. placebo): p < 0.0001
total time awake during each hour after dosing ([1]; 2.5 mg, hour 7 p 0.0577): statistically significant reduction each hour, except hour 7
REM sleep ([1]; 1.5 and 2.5 mg): only a small effect on REM sleep
patient-reported sleep quality ([1]; 1.5 and 2.5 mg): marked improvement in sleep quality
sleep architecture ([1]; 1.5 and 2.5 mg): equivalent to the natural sleep architecture
slow wave sleep ([1]; 1.5 and 2.5 mg): no impairment of slow wave sleep
Digit Symbol Substitution Test (DSST) scores ([1]; 9 hours after dose, compared with placebo): only slightly lower
EC50 [2, 4]: 84 ± 15 nM
Standardized Efficacy [2, 5]: 41 ± 8% (n = 5)
Efficacy [2, 6]: 171 ± 33% (n = 5)
EC50 [3, 4]: 62 ± 21 nM
Standardized Efficacy [3, 5]: 31 ± 6% (n = 5)
Efficacy [3, 6]: 90 ± 16% (n = 5)
